“Also recorded” adds a separate entry of the source. Read-outs that look alike come from different tables or passages of the source.
Columns and labels:
PRMT5 C278A mutant = PRMT5 C278A mutant (Homo sapiens, UniProt O14744, C278A); test: FP competition assay with C278A mutant PRMT5
PRMT5:WDR77 complex = PRMT5:WDR77 complex (Homo sapiens, UniProt O14744); test: SPR competition assay, full-length pICln titrated on pre-incubated PRMT5:WDR77; format: binding; details: PRMT5 pre-incubated with 2 μM compound overnight at 4C
Chain of PRMT5:WDR77 complex (O14744 whole entry): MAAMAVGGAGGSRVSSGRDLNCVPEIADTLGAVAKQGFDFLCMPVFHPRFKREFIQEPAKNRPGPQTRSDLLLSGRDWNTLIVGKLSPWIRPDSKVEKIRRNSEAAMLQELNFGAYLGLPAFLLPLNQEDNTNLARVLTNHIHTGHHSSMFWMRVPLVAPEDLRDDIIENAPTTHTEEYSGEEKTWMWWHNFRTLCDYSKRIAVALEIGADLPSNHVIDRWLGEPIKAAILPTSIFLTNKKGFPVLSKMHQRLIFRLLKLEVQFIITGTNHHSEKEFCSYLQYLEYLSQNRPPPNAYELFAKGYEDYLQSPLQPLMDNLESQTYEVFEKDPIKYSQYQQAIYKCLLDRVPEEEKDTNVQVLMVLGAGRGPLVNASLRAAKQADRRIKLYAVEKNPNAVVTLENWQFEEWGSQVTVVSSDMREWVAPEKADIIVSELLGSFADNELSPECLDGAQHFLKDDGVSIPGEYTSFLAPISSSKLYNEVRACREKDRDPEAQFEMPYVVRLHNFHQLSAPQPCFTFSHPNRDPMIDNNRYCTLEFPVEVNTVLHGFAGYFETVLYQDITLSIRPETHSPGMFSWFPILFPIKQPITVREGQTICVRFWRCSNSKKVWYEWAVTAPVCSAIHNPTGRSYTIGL
Chain of PRMT5:WDR77 complex (Q9BQA1 whole entry partner): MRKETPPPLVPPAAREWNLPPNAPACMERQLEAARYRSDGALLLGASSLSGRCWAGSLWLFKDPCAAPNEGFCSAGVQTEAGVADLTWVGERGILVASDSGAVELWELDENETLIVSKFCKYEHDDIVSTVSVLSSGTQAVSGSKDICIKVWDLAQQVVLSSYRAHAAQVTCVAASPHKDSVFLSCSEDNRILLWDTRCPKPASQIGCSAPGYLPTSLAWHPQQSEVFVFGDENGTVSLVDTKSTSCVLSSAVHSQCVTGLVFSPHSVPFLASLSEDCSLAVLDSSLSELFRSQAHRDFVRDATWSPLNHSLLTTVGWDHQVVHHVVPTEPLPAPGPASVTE

[1] = target: PRMT5:WDR77 hetero-octameric complex (Homo sapiens, UniProt O14744); test: Fluorescence polarization; format: binding; details: for inhibition of PRMT5-PBM peptide binding (in words): FP assay
Chain of PRMT5:WDR77 hetero-octameric complex (O14744 whole entry): as the sequence (O14744 whole entry) above
Chain of PRMT5:WDR77 hetero-octameric complex (Q9BQA1 whole entry partner): as the sequence (Q9BQA1 whole entry partner) above

[2] = tested on: symmetric arginine dimethylation levels in MTAP−/− HCT116 cells; test: Western blot of total symmetric arginine dimethylation; format: cell-based; details: 25 μM
PRMT5 = PRMT5 (Homo sapiens, UniProt O14744); test: Target engagement in cells; format: cell-based; details: Expi293 cells, 6 hours, maximum labeling
Chain of PRMT5 (O14744 whole entry): as the sequence (O14744 whole entry) above
Chain of PRMT5 (Q9BQA1 whole entry partner): as the sequence (Q9BQA1 whole entry partner) above

PRMT5-RIOK1 complex = PRMT5-RIOK1 complex (Homo sapiens, UniProt O14744); test: PRMT5-RIOK1 NanoBiT assay in permeabilized cells; format: cell-based
Chain of PRMT5-RIOK1 complex (O14744 whole entry): as the sequence (O14744 whole entry) above
Chain of PRMT5-RIOK1 complex (Q9BQA1 whole entry partner): as the sequence (Q9BQA1 whole entry partner) above

Chain of PRMT5 C278A mutant (O14744 whole entry C278A): as the sequence (O14744 whole entry) above, with C278A counted along it
Chain of PRMT5 C278A mutant (Q9BQA1 whole entry partner): as the sequence (Q9BQA1 whole entry partner) above

Compound: Cc1ccc(NC(=O)Cn2ncc(Cl)c(Cl)c2=O)cc1S(=O)(=O)NCCc1ccccn1 [Compound 6, 2-(4,5-Dichloro-6-oxopyridazin-1(6H)-yl)-N-(4-methyl-3-(N-(2-(pyridin-2-yl)ethyl)sulfamoyl)phenyl)acetamide]
- IC50 (PRMT5 C278A mutant): > 100000 nM
- pICln binding to compound-treated PRMT5 (in words) (PRMT5:WDR77 complex): greatly reduced binding response
- IC50 [1]: 600 nM

Compound: CN(C)S(=O)(=O)N1CCCC(NC(=O)Cn2ncc(Cl)c(Cl)c2=O)C1 (stereo not drawn) [Compound 18, 2-(4,5-Dichloro-6-oxopyridazin-1(6H)-yl)-N-(1-(N,N-dimethylsulfamoyl)piperidin-3-yl)acetamide]
- inhibition of PRMT5-PBM peptide binding (in words) [1]: no ability to displace the PBM peptide

Compound: Cc1ccc(NC(=O)[C@H](C)n2ncc(Cl)cc2=O)cc1S(=O)(=O)NCCc1ccccn1 [Compound 27, (2S)-2-(4-chloro-6-oxo-pyridazin-1-yl)-N-[4-methyl-3-[2-(2-pyridyl)ethylsulfamoyl]phenyl]propanamide]
- symmetric arginine dimethylation levels by WB (in words) [2]: reduction in symmetric arginine dimethylation levels; also recorded: reduces SDMA
- total PRMT5 protein labeled (PRMT5): ~ 40%

Compound: Cc1ccc(N(C)C(=O)[C@H](C)n2ncc(Cl)cc2=O)cc1S(=O)(=O)NCCc1ccccn1 [Compound 29, (2S)-2-(4-chloro-6-oxo-pyridazin-1-yl)-N-methyl-N-[4-methyl-3-[2-(2-pyridyl)ethylsulfamoyl]phenyl]propanamide]
- disruption of PRMT5-RIOK1 complex, permeabilized cells (in words) (PRMT5-RIOK1 complex): inactive

Compound: O=C(NC[C@H](O)CN1CCc2ccccc2C1)c1cc(NC2COC2)ncn1 [EPZ015666]
- inhibition of PRMT5-PBM peptide binding (in words) [1]: failed to inhibit this binding

Compound: Nc1nc2cc(CC[C@H]3C[C@@H](n4ccc5c(N)ncnc54)[C@H](O)[C@@H]3O)ccc2cc1Br [JNJ-64619178]
- inhibition of PRMT5-PBM peptide binding (in words) [1]: failed to inhibit this binding

Compound: CSC[C@H]1O[C@@H](n2cnc3c(N)ncnc32)[C@H](O)[C@@H]1O [MTA, 5′-S-Methyl-5′-thioadenosine]
- IC50 [1]: > 100000 nM

Compound: competitor PBM peptide: pICln 13-mer control peptide displacing the fluorescently-labeled PBM probe (TVAGQFEDADVDH; Terminal caps are) [reference compound]
- IC50 (PRMT5 C278A mutant; read-out: FP IC50 against C278A mutant, Fig. 3b, C278A PRMT5): 1400 nM
- IC50 ([1]; read-out: FP IC50 against WT PRMT5, Fig. 3b, WT vs C278A comparison): 2000 nM

From publication PMC9036822 (Journal of medicinal chemistry, 2021)
